Test: Reaction of sweetener with the amine-containing active (gel formation)
Format: physicochemical
Protocol: It has been discovered that gellation and/or agglomeration of components particularly occurred when sucralose was added to the active ingredient (such as ondansetron). It has been determined that the particular choice of excipients combined together may be important to prevent the formation of undesirable gellation and/or agglomeration. […] It is hypothesized that the amines on the active component may form quaternary salts with the primary alkyl chlorides on the sucralose. Quaternary polymers make good hydrogels, and thus undesirably form a gel-like structure, which is problematic in the processing of film matrices to form films having a uniformity of content.

- reaction with the amine-containing active (gel formation): did not react
Structure (SMILES): OC[C@H]1O[C@@](CO)(O[C@H]2O[C@H](CO)[C@@H](O)[C@H](O)[C@H]2O)[C@@H](O)[C@@H]1O [sucrose]

Source: patent US9095577B2, “Stabilized amine-containing actives in oral film compositions” (MonoSol Rx, LLC, priority 2009, dated 2015)
